Measured values as given in patent US20110275574A1, “METHOD OF INHIBITING PROLIFERATION OF HEPATIC STELLATE CELLS” (Agency for Science, Technology and Research, priority 2009, published 2011).
d = 2'-deoxy (DNA); r = 2'-OH (RNA)

Legend:
HSC-2 cells [1] = experiment: gap-FRAP analysis of gap junction intercellular communication; assay type: cell-based, rat
Description: Analysis of gap junction intercellular communication: HSC-2 cells were grown in a 60 mm cell culture dish overnight. At 90% cell confluence, hTGF-β1 (final concentration 10 ng/ml) or carbenoxolone (final concentration 40 μM) was added and incubated for 6 hours. As control, only PBS was given to the cells. Alternatively, BIM I (final concentration 5 μM) was added 30 minutes before the addition of hTGF-[3]. After a brief rinse in PBS, cells were incubated in D-MEM without phenol red, containing 5,6-carboxyfluorescein diacetate (Research Organics, USA) at a final concentration of 50 μg/ml and incubated in a 37° C. humidified incubator for 30 min. The cells were then rinsed twice with PBS and D-MEM without phenol red was added before proceeding with the Fluorescence Recovery After Photobleaching (FRAP) assay. The FRAP application included in the software package of the LEICA TCS SP2 equipped with the DM6000 (LEICA, Germany) was used. A 63× immersed objective (Leica HCX APO L U-V-I 63×/0.90 Water UV) was used. The argon laser at 488 nm was used for excitation and the fluorescence signal was captured between 500 and 535 nm. The conditions were as follows: 5 pre-bleach scans at 10% laser power, 40 bleach scans at 100% laser power followed by 60 post-bleach scans at 15 seconds intervals. During the bleaching period, the Zoom mode was used to bleach a single cell (target cell) defined in a region of interest (ROI). All data were corrected for photobleaching during post-bleach acquisition using the whole scanned area. The time constant of recovery, tau (τ), was estimated by fitting the corrected experimental data (OriginPro 7 SR4, OriginLab USA) to the following function: F(t)=F0+(F∞−F0)(1−e^−t/τ), with F(t) being the corrected fluorescence intensity and F∞ being the asymptotic value of the fluorescence intensity. The transfer constant (k) was calculated from k=1/τ and normalized by dividing by the number of cells in contact with the target cell. The fluorescence recovery for each cell was about 50%.

pCx43 Ser368 = experiment: Phosphorylation of Cx43 at serine 368 by Western blot in HSC-2 cells; assay type: cell-based, rat
Description: (§1) Hepatic stellate cells treatment with recombinant human TGF-β1: Twenty four hours prior to treatment, HSCs were seeded in 75 cm^2 tissue culture flasks. At 60-70% cell confluence, recombinant human TGF-β1 (hTGF-[3]) was added at a final concentration of 1 or 10 ng/ml and incubated for 2, 6, 10, 24 or 30 hours. For the control treatment, only phosphate-buffered saline (PBS) was given to the cells. In some experiments, HSC-2 cells were treated with bisindolylmaleimide I (BIM I) at a final concentration of 5 μM for 30 min before treatment with 10 ng/ml hTGF-β1.
(§2) SDS-PAGE and Western blot: Cell lysis and subsequent separation of total protein in SDS-PAGE followed by Western blot was performed as recently described (Lim et al., 2008). The membrane was blocked with 5% non-fat milk in TBS-Tween (TBS-T). The Cx43 (sc-9059, Santa Cruz Biotechnology, USA), phosphorylated Cx43 at serine 368 (pCx43 Ser368, 3511S, Cell Signaling Technology, USA), PCNA (Ab29, Abcam, UK) and β-actin (A2228, Sigma, USA) primary antibodies were applied at a dilution of 1:1000, 1:750, 1:5000 and 1:7500 respectively in blocking solution. […] Semi-quantitative densitometric analysis of Western blots was performed using the ImageJ software (W. Rasband, NIH; rsb.info.nih.gov/ij/).

HSC-2 cells [2] = experiment: Cell counting (proliferation) of HSC-2 cells; assay type: cell-based, rat; conditions: for total number of cells: HSC-2, Cx43 siRNA 10 nM, 48 hours, versus mock-transfected
Description: (§3) Snai1 and connexin 43 siRNAs transfection: Shortly before transfection, 1−2×10^6 HSC-2 cells were seeded in 100 mm cell culture dishes and incubated at 37° C. The siRNA was added at a final concentration of 10 nM to 1 ml of D-MEM without serum, followed by 120 μl of HiPerfect transfection reagent (Qiagen, Germany) and incubated for 10 min. The siRNA/transfection reagent solution was added drop-wise to the cells and incubated for 24 or 48 hours. As mock control, only HiPerfect reagent was added to the cells. The Snai1 siRNAs used were Rn_Snai1—1 and Rn_Snai1—3 and the Cx43 siRNAs used were Rn_Gja1—1 and Rn_Gja1—5 (Qiagen, Germany).
Cell counting: After treatment, cells were washed once with PBS and detached using trypsin/EDTA. Following centrifugation at 800 rpm for 4 min, the cell pellet was resuspended in 1 ml D-MEM and the cells were counted using the forward scatter function of the GUAVA PCA-96 (Guava Technologies, CA, USA).

Cx43 mRNA = Cx43 mRNA expression by quantitative real-time PCR in HSC-2 cells; assay type: cell-based, rat; conditions: for down-regulation of Cx43 mRNA: HSC-2, Cx43 siRNA 10 nM, 48 hours, relative to mock-transfected
Description: (§4) Cell culture conditions: Primary hepatic stellate cells were isolated from male Wistar rats according to a previously published procedure (Weiskirchen and Gressner, 2005). The protocol was approved by the Institutional Animal Care and Use Committee (IACUC) of the Biomedical Research Council of Singapore. The purity of primary HSCs was assessed by vitamin A autofluorescence one day after isolation. The cell line HSC-2 was described elsewhere (Maubach et al., 2008). All cells were cultivated in a humidified 37° C. incubator circulated with 5% CO2. High glucose Dulbecco's modified Eagle medium (D-MEM) containing 10% fetal bovine serum, 100 units/ml penicillin and 100 μg/ml streptomycin was used during cell culture. Trypsin-EDTA was purchased from Biochrome (Germany). All other cell culture reagents were from Invitrogen (CA, USA).
as §1
Reverse transcription and quantitative PCR: Total RNA was isolated from cells according to the manufacturer's protocol (RNA II kit, Machery-Nagel, Germany). All reagents for reverse transcription and real-time PCR were from Applied Biosystems (CA, USA). One microgram of total RNA was reverse transcribed to cDNA in a total reaction volume of 50 μl at conditions described in the RT kit (N8080234). Real-time PCR reactions were performed using the Fast Real Time PCR System (Applied Biosystems). Three microlitres of cDNA were used in a PCR reaction volume of 10 μl. The Taqman probes for target genes Cx43 and Snai1, as well as for endogenous control β-actin were Rn01433957_m1, Rn00441533_g1 and 4352341E, respectively. The PCR conditions were 95° C. for 20 s and 40 cycles of amplification at 95° C. for 3 s and 60° C. for 30 s.
as §3

Cx43 protein = Cx43 protein expression by Western blot in HSC-2 cells; assay type: cell-based, rat
Description: Hepatic stellate cells treatment with recombinant human TGF-β1: Twenty four hours prior to treatment, HSCs were seeded in 75 cm^2 tissue culture flasks. […] For the control treatment, only phosphate-buffered saline (PBS) was given to the cells. In some experiments, HSC-2 cells were treated with bisindolylmaleimide I (BIM I) at a final concentration of 5 μM for 30 min before treatment with 10 ng/ml hTGF-β1.
as §2, with “solution. After three washes in TBS-T, the appropriate secondary antibody conjugated with horse radish peroxidase (Santa Cruz Biotechnology, USA) was added at a dilution of 1:2000 in blocking solution. After three washes in TBS-T, the membrane was developed with ECL Plus (RPN2132, GE Healthcare, UK).” for “solution.”, “rsb.info.nih.gov/ij/). […]” for “rsb.info.nih.gov/ij/).”

Snai1 = Snai1 mRNA and protein expression (real-time PCR, Western blot) in HSC-2 cells; assay type: cell-based, rat
Description: as §1
Reverse transcription and quantitative PCR: Total RNA was isolated from cells according to the manufacturer's protocol (RNA II kit, Machery-Nagel, Germany). All reagents for reverse transcription and real-time PCR were from Applied Biosystems (CA, USA). One microgram of total RNA was reverse transcribed to cDNA in a total reaction volume of 50 μl at conditions described in the RT kit (N8080234). Real-time PCR reactions were performed using the Fast Real Time PCR System (Applied Biosystems). […]
SDS-PAGE and Western blot: Cell lysis and subsequent separation of total protein in SDS-PAGE followed by Western blot was performed as recently described (Lim et al., 2008). […] Semi-quantitative densitometric analysis of Western blots was performed using the ImageJ software (W. Rasband, NIH; rsb.info.nih.gov/ij/). […]

PCNA = experiment: Expression of proliferation marker PCNA by Western blot in HSC-2 cells; assay type: cell-based, rat; conditions: HSC-2, 10 ng/ml hTGF-β1, 48 hours
Description: SDS-PAGE and Western blot: Cell lysis and subsequent separation of total protein in SDS-PAGE followed by Western blot was performed as recently described (Lim et al., 2008). The membrane was blocked with 5% non-fat milk in TBS-Tween (TBS-T). The Cx43 (sc-9059, Santa Cruz Biotechnology, USA), phosphorylated Cx43 at serine 368 (pCx43 Ser368, 3511S, Cell Signaling Technology, USA), PCNA (Ab29, Abcam, UK) and β-actin (A2228, Sigma, USA) primary antibodies were applied at a dilution of 1:1000, 1:750, 1:5000 and 1:7500 respectively in blocking solution. After three washes in TBS-T, the appropriate secondary antibody conjugated with horse radish peroxidase (Santa Cruz Biotechnology, USA) was added at a dilution of 1:2000 in blocking solution. After three washes in TBS-T, the membrane was developed with ECL Plus (RPN2132, GE Healthcare, UK). The incubation with pCx43 antibody was performed overnight at 4° C. All other incubations were carried out for 1 hour at room temperature. Semi-quantitative densitometric analysis of Western blots was performed using the ImageJ software (W. Rasband, NIH; rsb.info.nih.gov/ij/).
Snai1 and connexin 43 siRNAs transfection: Shortly before transfection, 1−2×10^6 HSC-2 cells were seeded in 100 mm cell culture dishes and incubated at 37° C. […]

[3] = tested on: Snai1 consensus sequence in the Cx43 promoter; experiment: Electrophoretic mobility shift assay, HSC-2 nuclear extract on Snai1 consensus sequence of rat Cx43 promoter; assay type: cell-based; conditions: nuclear extract of HSC-2, 10 ng/ml hTGF-β1 2 hours, versus untreated
From the text: Electrophoretic mobility shift assay: Based on the rat Cx43 gene (NW—001084790), biotinylated double-stranded oligonucleotide probe […]-3 [SEQ ID NO: 12], with the Snai1 consensus sequence (underlined), was synthesized (Research Biolabs, Singapore). In the mutated double-stranded oligonucleotide, the Snai1 consensus sequence was changed to CAGGAA. Nuclear protein extract was obtained using the NE-PER Nuclear and Cytoplasmic Extraction kit (Pierce, USA). The electrophoretic mobility shift assay was performed using reagents from the Snai1 kit according to its protocol (AY1398, Panomics, USA). Briefly, 5 μg nuclear protein extract was incubated in a reaction mixture consisting of poly d(1-C), 5× binding buffer and nuclease-free water for 5 min before addition of 1 μl probe (stock 20 nM). The total reaction volume was 10 μl. For competition assay, 2 μl unlabeled probe (stock 2 μM) was added 5 min prior to the addition of labeled probe. The reaction was incubated at 15° C. for 30 min. The samples were separated in a 6% non-denaturing polyacrylamide gel (Invitrogen) and transferred onto a nylon membrane.

Snai1 mRNA = Snai1 mRNA expression in in vitro activated primary HSCs; assay type: cell-based, rat; conditions: 1 and 10 ng/ml hTGF-β1, 10 hours
Description: as §4
Hepatic stellate cells treatment with recombinant human TGF-β1: Twenty four hours prior to treatment, HSCs were seeded in 75 cm^2 tissue culture flasks. At 60-70% cell confluence, recombinant human TGF-β1 (hTGF-[3]) was added at a final concentration of 1 or 10 ng/ml and incubated for 2, 6, 10, 24 or 30 hours. For the control treatment, only phosphate-buffered saline (PBS) was given to the cells. […]
Reverse transcription and quantitative PCR: Total RNA was isolated from cells according to the manufacturer's protocol (RNA II kit, Machery-Nagel, Germany). […]

[4] = HSC-2, 10 ng/ml hTGF-β1, 48 hours
[5] = HSC-2, 10 ng/ml hTGF-β1, up to 30 hours

## CN(C)CCCn1cc(C2=C(c3c[nH]c4ccccc34)C(=O)NC2=O)c2ccccc21 [BIM I, bisindolylmaleimide I, reference compound]
HSC-2 cells [1]; HSC-2, 5 μM BIM I 30 minutes before 10 ng/ml hTGF-β1
  TGF-β1-induced down-regulation of GJIC: attenuated
pCx43 Ser368; HSC-2, 5 μM BIM I 30 min before 10 ng/ml hTGF-β1
  phosphorylation of Cx43 at serine 368 after hTGF-β1: reduces

## CC1(C)[C@@H](OC(=O)CCC(=O)O)CC[C@]2(C)[C@H]3C(=O)C=C4[C@@H]5C[C@@](C)(C(=O)O)CC[C@]5(C)CC[C@@]4(C)[C@]3(C)CC[C@@H]12 [carbenoxolone]
HSC-2 cells [1]; HSC-2, 40 μM carbenoxolone, 6 hours
  dye transfer rate (k), reduced to: about 50%

## Cx43 siRNA 1: Cx43 siRNA, sense strand r(CAG UGC ACA UGU AAC UAA U)dTdT [SEQ ID NO: 6], antisense SEQ ID NO: 7 (Qiagen) (sense CAGUGCACAUGUAACUAAUTT; antisense AUUAGUUACAUGUGCACUGTT; sugars from the 5' end r19 d2, backbone not given here)
HSC-2 cells [2]
  total number of cells: significant decline
Cx43 mRNA
  down-regulation of Cx43 mRNA: about 65%

## Cx43 siRNA 5: Cx43 siRNA, sense strand r(GGU AAG CUU CCC UGG UCU A)dTdT [SEQ ID NO: 9], antisense SEQ ID NO: 10 (Qiagen) (sense GGUAAGCUUCCCUGGUCUATT; antisense UAGACCAGGGAAGCUUACCTT; sugars from the 5' end r19 d2, backbone not given here)
HSC-2 cells [2]
  total number of cells: significant decline
Cx43 mRNA
  down-regulation of Cx43 mRNA: about 65%

## hTGF-β1: recombinant human TGF-β1, pro-fibrogenic cytokine added to HSCs
Cx43 protein; [4]
  expression of Cx43: significant reduction
Cx43 protein; HSC-2, 1 and 10 ng/ml hTGF-β1, 24 hours
  Cx43 protein regulation: down-regulated
HSC-2 cells [1]; HSC-2, 10 ng/ml hTGF-β1, 6 hours, versus PBS control
  transfer rate of the fluorescence dye 5,6-carboxyfluorescein diacetate: significantly lower
Snai1; [5]
  Snai1 transcript and protein expression: increase
Snai1; HSC-2, 1 and 10 ng/ml hTGF-β1, 10 hours
  Snai1 mRNA: induced
PCNA
  expression of PCNA: significant reduction
HSC-2 cells [2]; [4]
  cell number: significant reduction
[3]
  EMSA band of Snai1-oligonucleotide complex: more intense band
Snai1 mRNA
  Snai1 mRNA: induced
pCx43 Ser368; HSC-2, 10 ng/ml hTGF-β1, 6 hours
  phosphorylation of Cx43 at serine 368: increase
Cx43 mRNA; HSC-2, 1 ng/ml hTGF-β1, 10 hours
  decrease of Cx43 transcripts: 30%
Cx43 mRNA; HSC-2, 10 ng/ml hTGF-β1, 10 hours
  decrease of Cx43 transcripts: 45%
Cx43 mRNA; [5]
  Cx43 transcript and protein expression: decrease
